# Results from patent US10131652B2, “Pyrimidinyloxy benzene derivatives as herbicides” (E. I. DU PONT DE NEMOURS AND COMPANY, priority 2014, dated 2018).
# What was measured:
# Assay in all cases: Test D pre-/postemergence plant response
# Format in all cases: in vivo
# [1] = tested on: johnsongrass (Sorghum halepense)
# Outline: (§1)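 Visual injury scoring (0–100) at 13 to 15 days in greenhouse. Preemergence sprays on seeded loam/sand; postemergence sprays on 1–4 leaf plants.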
# [2] = tested on: blackgrass (Alopecurus myosuroides)
# Outline: as §1
# [3] = tested on: pigweed (Amaranthus retroflexus)
# Outline: as §1
# [4] = tested on: barnyardgrass (Echinochloa crus-galli)
# Outline: as §1
# [5] = tested on: giant foxtail (Setaria faberii)
# Outline: as §1
# [6] = tested on: yellow nutsedge (Cyperus esculentus)
# Outline: as §1
# [7] = tested on: waterhemp (common waterhemp, Amaranthus rudis)
# Outline: as §1
# [8] = tested on: large (Lg) crabgrass (Digitaria sanguinalis)
# Outline: as §1
# [9] = tested on: galium (catchweed bedstraw, Galium aparine)
# Outline: as §1
# [10] = Postemergence, 31 g ai/ha, scale 0 to 100 (0 no effect, 100 complete control)
# [11] = Postemergence, 62 g ai/ha, scale 0 to 100, 0 no effect, 100 complete control
# [12] = Postemergence, 125 g ai/ha, scale 0 to 100, 0 no effect, 100 complete control
# [13] = Preemergence, 16 g ai/ha, scale 0 to 100 (0 no effect, 100 complete control)
# [14] = Preemergence, 31 g ai/ha, scale 0 to 100 (0 no effect, 100 complete control)
# [15] = Preemergence, 62 g ai/ha, scale 0 to 100 (0 no effect, 100 complete control)
compound,measurement,setting,value
N#Cc1cccc(Oc2ncc(Cl)cn2)c1-c1cc(C(F)F)on1 [Compound 180],"Plant response rating (scale 0 to 100), Johnsongrass","[1]; Postemergence, 16 g ai/ha",0
same,Johnsongrass plant response rating,[1]; [10],0
same,"Plant response rating, Johnsongrass",[1]; [11],5
same,"Plant response rating, Johnsongrass",[1]; [12],5
same,"Plant response rating (scale 0 to 100), Johnsongrass","[1]; Preemergence, 125 g ai/ha",90
same,"Plant response rating, Johnsongrass",[1]; [13],0
same,"Plant response rating, Johnsongrass",[1]; [14],10
same,"Plant response rating, Johnsongrass",[1]; [15],60
same,"Plant response rating (scale 0 to 100), Blackgrass","[2]; Postemergence, 16 g ai/ha",0
same,Blackgrass plant response rating,[2]; [10],0
same,"Plant response rating, Blackgrass",[2]; [11],5
same,"Plant response rating, Blackgrass",[2]; [12],5
same,"Plant response rating (scale 0 to 100), Blackgrass","[2]; Preemergence, 125 g ai/ha",70
same,"Plant response rating, Blackgrass",[2]; [13],0
same,"Plant response rating, Blackgrass",[2]; [14],0
same,"Plant response rating, Blackgrass",[2]; [15],60
same,"Plant response rating (scale 0 to 100), Pigweed","[3]; Postemergence, 16 g ai/ha",70
same,Pigweed plant response rating,[3]; [10],75
same,Pigweed plant response rating,[3]; [11],75
same,"Plant response rating, Pigweed",[3]; [12],98
same,"Plant response rating (scale 0 to 100), Pigweed","[3]; Preemergence, 125 g ai/ha",100
same,"Plant response rating, Pigweed",[3]; [13],80
same,"Plant response rating, Pigweed",[3]; [14],98
same,"Plant response rating, Pigweed",[3]; [15],100
same,"Plant response rating (scale 0 to 100), Barnyardgrass","[4]; Postemergence, 16 g ai/ha",0
same,Barnyardgrass plant response rating,[4]; [10],0
same,"Plant response rating, Barnyardgrass",[4]; [11],5
same,"Plant response rating, Barnyardgrass",[4]; [12],5
same,"Plant response rating (scale 0 to 100), Barnyardgrass","[4]; Preemergence, 125 g ai/ha",80
same,"Plant response rating, Barnyardgrass",[4]; [13],0
same,"Plant response rating, Barnyardgrass",[4]; [14],0
same,"Plant response rating, Barnyardgrass",[4]; [15],35
same,"Plant response rating (scale 0 to 100), Foxtail, Giant","[5]; Postemergence, 16 g ai/ha",60
same,"Foxtail, Giant plant response rating",[5]; [10],50
same,"Plant response rating, Foxtail, Giant",[5]; [11],30
same,"Plant response rating, Foxtail, Giant",[5]; [12],45
same,"Plant response rating (scale 0 to 100), Foxtail, Giant","[5]; Preemergence, 125 g ai/ha",100
same,"Plant response rating, Foxtail, Giant",[5]; [13],5
same,"Plant response rating, Foxtail, Giant",[5]; [14],60
same,"Plant response rating, Foxtail, Giant",[5]; [15],85
same,"Plant response rating (scale 0 to 100), Nutsedge, Yellow","[6]; Postemergence, 16 g ai/ha",0
same,"Nutsedge, Yellow plant response rating",[6]; [10],0
same,"Nutsedge, Yellow plant response rating",[6]; [11],10
same,"Plant response rating, Nutsedge, Yellow",[6]; [12],15
same,"Plant response rating (scale 0 to 100), Nutsedge, Yellow","[6]; Preemergence, 125 g ai/ha",30
same,"Plant response rating, Nutsedge, Yellow",[6]; [13],0
same,"Plant response rating, Nutsedge, Yellow",[6]; [14],0
same,"Plant response rating, Nutsedge, Yellow",[6]; [15],0
same,"Plant response rating (scale 0 to 100), Waterhemp","[7]; Postemergence, 16 g ai/ha",40
same,Waterhemp plant response rating,[7]; [10],75
same,Waterhemp plant response rating,[7]; [11],90
same,"Plant response rating, Waterhemp",[7]; [12],98
same,"Plant response rating (scale 0 to 100), Waterhemp","[7]; Preemergence, 125 g ai/ha",100
same,"Plant response rating, Waterhemp",[7]; [13],40
same,"Plant response rating, Waterhemp",[7]; [14],95
same,"Plant response rating, Waterhemp",[7]; [15],95
same,"Plant response rating (scale 0 to 100), Crabgrass, Large","[8]; Postemergence, 16 g ai/ha",5
same,"Crabgrass, Large plant response rating",[8]; [10],5
same,"Plant response rating, Crabgrass, Large",[8]; [11],5
same,"Plant response rating, Crabgrass, Large",[8]; [12],5
same,"Plant response rating (scale 0 to 100), Crabgrass, Large","[8]; Preemergence, 125 g ai/ha",100
same,"Plant response rating, Crabgrass, Large",[8]; [13],30
same,"Plant response rating, Crabgrass, Large",[8]; [14],75
same,"Plant response rating, Crabgrass, Large",[8]; [15],100
same,"Plant response rating (scale 0 to 100), Galium","[9]; Postemergence, 16 g ai/ha",65
same,Galium plant response rating,[9]; [10],75
same,"Plant response rating, Galium",[9]; [11],100
same,"Plant response rating, Galium",[9]; [12],100
same,"Plant response rating (scale 0 to 100), Galium","[9]; Preemergence, 125 g ai/ha",98
same,"Plant response rating, Galium",[9]; [13],75
same,"Plant response rating, Galium",[9]; [14],80
same,"Plant response rating, Galium",[9]; [15],98
